Source: patent US9527894B2, “Polymutant tau protein variants and their use for recapitulating human tauopathies” (Universitaet Leipzig, priority 2011, dated 2016)

Key:
[1] = system: Hyper-tau expressing SH-SY5Y cells; assay: impedance spectroscopy based functional tau pathology in vitro screening assay (Hyper-tau cells); format: cell-based, human
Experimental: FIG. 6: Use of Hyper-tau cells for quantitative detection of compound efficiency. Taking the developed Hyper-tau cells, where pathology was induced by differentiation (20 nM staurosporine for 48 h) in comparison to the wildtype tau expressing cells (physiological condition) the efficiency of potential active pharmaceutical ingredients could be quantified.
Human neuroblastoma SH-SY5Y cells were grown in DMEM medium, supplemented with 15% fetal bovine serum (FBS), non-essential amino acids, glutamax and penicillin/streptomycine (Invitrogen). Differentiation of SH-SY5Y cells was induced by incubation of the SH-SY5Y cells with 20 nM stauropsprin (Sigma-Aldrich) for 48 hours. […]
Cells were cultured on self-developed 96-well arrays comprising a gold electrode at the culture surface. […] Impedance spectra were recorded with a self developed multiplexer unit for the 96-well arrays and an impedance Analyser Agilent 4294A (Agilent Technologies) with an alternating voltage of 10 mV with frequencies from 500 Hz to 5 MHz (0 mV bias between electrodes). For each experiment at least five wells were measured in replicate. All impedance magnitude spectra were analysed with a self-developed software IDAT (Impedance Data Analysing Tool). […]

tau hyperphosphorylation = conditions: artificial hyperphosphorylation using toxic compounds like okadaic acid; cited from earlier work
tauopathy mouse model = conditions: LeCorre et al. 2006, Selenica et al. 2007; cited from earlier work
[2] = system: tau mutant expressing SH-SY5Y cells; assay: impedimetric detection of okadaic acid induced artificial hyperphosphorylation; format: cell-based, human; conditions: 25 nM
Experimental: FIG. 4: Impedimetric detection of consequences by okadaic acid induced artificial hyperphosphorylation. […] (n=3, 2D-ANOVA, Bonferoni post-hoc test, *p<0.05, **p<0.01, ***p<0.001)
(§1) Human neuroblastoma SH-SY5Y cells were grown in DMEM medium, supplemented with 15% fetal bovine serum (FBS), non-essential amino acids, glutamax and penicillin/streptomycine (Invitrogen). Differentiation of SH-SY5Y cells was induced by incubation of the SH-SY5Y cells with 20 nM stauropsprin (Sigma-Aldrich) for 48 hours. For the appropriate experiments differentiated cells were treated with okadaic acid (Sigma-Aldrich) in a concentration of 25 nM or in case of reference compound testing with SRN-003-556 and AR-A014418, respectively.
Cells were cultured on self-developed 96-well arrays comprising a gold electrode at the culture surface. The SH-SY5Y cells were differentiated for 48 hours on the 96-well arrays. Impedance spectra were recorded with a self developed multiplexer unit for the 96-well arrays and an impedance Analyser Agilent 4294A (Agilent Technologies) with an alternating voltage of 10 mV with frequencies from 500 Hz to 5 MHz (0 mV bias between electrodes). For each experiment at least five wells were measured in replicate. All impedance magnitude spectra were analysed with a self-developed software IDAT (Impedance Data Analysing Tool). […]

[3] = system: MC1-positive (abnormal conformation) tau in SH-SY5Y cell lines; assay: Western blot detection of abnormal tau conformation with MC1 antibody; format: cell-based, human; conditions: undifferentiated neuroblastoma cell lines
Source text: FIG. 2: Abnormal tau conformation in polymutant tau cell lines. Poly-mutant tau variants were developed and, using those variants, poly-mutant neuroblastoma cell lines were produced. In those cell lines tau adopting an abnormal/pathological conformation under physiological conditions was observed (MC1 abnormal tau). […] Corroborating recent results that phosphorylation may stabilize abnormal conformation the amount of MC1-positive tau species could be decreased by treating the cells with a tau kinase inhibitor (SRN-003-556). […]
Cells were harvested and protease as well as phosphatase inhibitor cocktail (Sigma-Aldrich) was added. Proteins were extracted by sonification (Hielscher GmbH) and protein concentration was determined using the Roti-Nanoquant Assay (Carl-Roth GmbH). Laemmli sample buffer was added to 60 μg cell lysate. Samples were separated on 10% SDS-polyacrylamide gel and electro transferred onto polyvinylidene fluoride membranes and subsequently immunolabeled with anti-MC1 specific antibody (Peter Davis Department of Pathology, Albert Einstein College of Medicine, 1:100) at 4° C. over night. Secondary antibody was horseradish peroxidase conjugated (Dianova, 1:5000). Specific protein signals were detected using Chemiluminescence Detection Kit (MobiTec) and ChemiDoc-XRS (BioRad). […]

SH-SY5Y cells = assay: impedimetric monitoring of differentiated wildtype and poly-mutant tau expressing cells; format: cell-based, human; conditions: differentiated 48 h with 20 nM staurosporine, then monitored 24 h; compared to wildtype tau cells
Experimental: FIG. 5: Differentiation induces neurodegeneration in poly-mutant tau expressing SH-SY5Y cells. Differentiation of SH-SY5Y cells were induced by 48 h incubation with 20 nM staurosporine. Afterwards the cells were impedimetrically monitored for 24 h. […] (n=4, 2D-ANOVA, Bonferoni post-hoc test, *p<0.05, **p<0.01)
as §1
Cells were cultured on self-developed 96-well arrays comprising a gold electrode at the culture surface. The SH-SY5Y cells were differentiated for 48 hours on the 96-well arrays. Impedance spectra were recorded with a self developed multiplexer unit for the 96-well arrays and an impedance Analyser Agilent 4294A (Agilent Technologies) with an alternating voltage of 10 mV with frequencies from 500 Hz to 5 MHz (0 mV bias between electrodes). For each experiment at least five wells were measured in replicate. All impedance magnitude spectra were analysed with a self-developed software IDAT (Impedance Data Analysing Tool). IDAT calculates the impedance of cell-covered electrodes relative to electrodes without cells (relative impedance: (|Z|covered-|Z|cell-free)/|Z|cell-free×100%) and determine the and select the frequency where impedance change caused by the cell layer is maximum (for SH-SY5Y cells on 96-well array at about 100 kHz). […] Experiments were repeated at least three times. […]

[4] = system: SH-SY5Y neuroblastoma cell lines; assay: formation of abnormal tau aggregates after differentiation (EGFP-tau imaging); format: cell-based, human; conditions: after induction of differentiation (20 nM staurosporine), without toxic cofactors
Experimental: FIG. 1: Abnormal tau aggregation in a hyper-mutated tau expressing cell line.
as §1

## COc1ccc(CNC(=O)Nc2ncc([N+](=O)[O-])s2)cc1 [AR-A014418]
[1]; 6 h and 12 h, 0.1 nM-100 nM
  side effects detected by impedimetric monitoring: toxic effects
[1]; Hyper-tau cells differentiated with 20 nM staurosporine for 48 h, compared to wildtype tau cells
  therapeutic effect on Hyper-tau induced pathology (impedance): no therapeutic effect
Tau hyperphosphorylation
  therapeutic effect in okadaic acid based tau pathology in vitro assays: therapeutic effect
Tauopathy mouse model
  therapeutic effect in tauopathy mouse model: does not

## C=C1[C@@H](O)[C@@H]2O[C@]3(CC[C@H](/C=C/[C@@H](C)[C@@H]4CC(C)=C[C@@]5(O[C@H](C[C@@](C)(O)C(=O)O)CC[C@H]5O)O4)O3)CC[C@H]2O[C@@H]1[C@@H](O)C[C@H](C)[C@H]1O[C@@]2(CCCCO2)CC[C@H]1C [okadaic acid]
[2]; 3 h and 6 h
  impedimetric effect of okadaic acid incubation: Hyper-tau mutant specific degenerative effect
[2]; after 24 h
  impedimetric effect of okadaic acid incubation: massive cell damage in all tau mutants

## Hyper-tau: 5× polymutant tauK257T/ΔK280/P301L/V337M/R406W, SEQ ID NO:3
[3]
  MC1-detected misfolded tau species: abnormally conformed, misfolded tau species
SH-SY5Y cells
  relative impedance of tau variant expressing cells: still more substantial decrease of relative impedance
[4]
  formation of abnormal tau aggregates: formation of abnormal tau aggregates

## K257Tq: 4× polymutant tauK257T/P301L/V337M/R406W
SH-SY5Y cells
  relative impedance of tau variant expressing cells: lower impedance values

## P301L: single mutant tau (P301L)
SH-SY5Y cells
  relative impedance of tau variant expressing cells: same impedimetric characteristic like the wildtype tau expressing cells
